# Results as given in the NIST ThermoML archive (doi:10.1021/je0604277).
# ± gives the expanded uncertainty stated by the source.
# What was measured:
# [1] = for viscosity: 101.33 kPa, Liquid, rotational viscometer; for surface tension liquid-gas: Pendant drop shape
# [2] = 298.15 K; 101 kPa; Liquid mixture 1; rotated drop method
structure (smiles),measurement,setting,value
CCCCn1cc[n+](C)c1.F[P-](F)(F)(F)(F)F [1-butyl-3-methylimidazolium hexafluorophosphate],viscosity,[1]; 288.15 K,400.2 ± 16 mPa·s
same,viscosity,[1]; 293.15 K,294 ± 12 mPa·s
same,viscosity,[1]; 296.15 K,245.8 ± 10 mPa·s
same,surface tension liquid-gas,[1]; 298.15 K,53.1 ± 2.5 mN/m
same,viscosity,[1]; 298.15 K,217.9 ± 8.6 mPa·s
same,viscosity,[1]; 301.15 K,182.7 ± 7.4 mPa·s
same,viscosity,[1]; 303.15 K,162.9 ± 6.5 mPa·s
same,viscosity,[1]; 305.15 K,145.1 ± 5.6 mPa·s
same,viscosity,[1]; 308.15 K,123.2 ± 4.8 mPa·s
same,viscosity,[1]; 311.15 K,104 ± 4.1 mPa·s
same,viscosity,[1]; 313.15 K,95 ± 3.6 mPa·s
CCCCn1cc[n+](C)c1.F[P-](F)(F)(F)(F)F [1-butyl-3-methylimidazolium hexafluorophosphate] + C1CCCCC1,interfacial tension,[2],13.15 ± 0.26 mN/m
CCCCn1cc[n+](C)c1.F[P-](F)(F)(F)(F)F [1-butyl-3-methylimidazolium hexafluorophosphate] + C=CCCCC,interfacial tension,[2],10.42 ± 0.21 mN/m
CCCCn1cc[n+](C)c1.F[P-](F)(F)(F)(F)F [1-butyl-3-methylimidazolium hexafluorophosphate] + CCC(=O)O,interfacial tension,[2],3.292 ± 0.066 mN/m
CCCCn1cc[n+](C)c1.F[P-](F)(F)(F)(F)F [1-butyl-3-methylimidazolium hexafluorophosphate] + CCCCC,interfacial tension,[2],13.65 ± 0.27 mN/m
CCCCn1cc[n+](C)c1.F[P-](F)(F)(F)(F)F [1-butyl-3-methylimidazolium hexafluorophosphate] + CCCCCC,interfacial tension,[2],13.39 ± 0.27 mN/m
CCCCn1cc[n+](C)c1.F[P-](F)(F)(F)(F)F [1-butyl-3-methylimidazolium hexafluorophosphate] + CCCCCCCC,interfacial tension,[2],14.29 ± 0.28 mN/m
CCCCn1cc[n+](C)c1.F[P-](F)(F)(F)(F)F [1-butyl-3-methylimidazolium hexafluorophosphate] + CCCCCCCCCCO,interfacial tension,[2],7.516 ± 0.15 mN/m
CCCCn1cc[n+](C)c1.F[P-](F)(F)(F)(F)F [1-butyl-3-methylimidazolium hexafluorophosphate] + CCCCCCCCO,interfacial tension,[2],7.385 ± 0.15 mN/m
CCCCn1cc[n+](C)c1.F[P-](F)(F)(F)(F)F [1-butyl-3-methylimidazolium hexafluorophosphate] + CCCCCCCO,interfacial tension,[2],6.41 ± 0.13 mN/m
CCCCn1cc[n+](C)c1.F[P-](F)(F)(F)(F)F [1-butyl-3-methylimidazolium hexafluorophosphate] + CCCCCCO,interfacial tension,[2],5.556 ± 0.11 mN/m
CCCCn1cc[n+](C)c1.F[P-](F)(F)(F)(F)F [1-butyl-3-methylimidazolium hexafluorophosphate] + CCCCCO,interfacial tension,[2],5.325 ± 0.11 mN/m
CCCCn1cc[n+](C)c1.F[P-](F)(F)(F)(F)F [1-butyl-3-methylimidazolium hexafluorophosphate] + CCCCO,interfacial tension,[2],4.706 ± 0.094 mN/m
CCCCn1cc[n+](C)c1.F[P-](F)(F)(F)(F)F [1-butyl-3-methylimidazolium hexafluorophosphate] + CCCCOC(C)=O,interfacial tension,[2],0.4344 ± 0.0087 mN/m
CCCCn1cc[n+](C)c1.F[P-](F)(F)(F)(F)F [1-butyl-3-methylimidazolium hexafluorophosphate] + CCO,interfacial tension,[2],1.222 ± 0.024 mN/m
CCCCn1cc[n+](C)c1.F[P-](F)(F)(F)(F)F [1-butyl-3-methylimidazolium hexafluorophosphate] + CCOC(C)=O,interfacial tension,[2],11.69 ± 0.23 mN/m
CCCCn1cc[n+](C)c1.F[P-](F)(F)(F)(F)F [1-butyl-3-methylimidazolium hexafluorophosphate] + CCc1ccccc1,interfacial tension,[2],3.995 ± 0.08 mN/m
CCCCn1cc[n+](C)c1.F[P-](F)(F)(F)(F)F [1-butyl-3-methylimidazolium hexafluorophosphate] + Cc1ccccc1,interfacial tension,[2],3 ± 0.06 mN/m
CCCCn1cc[n+](C)c1.F[P-](F)(F)(F)(F)F [1-butyl-3-methylimidazolium hexafluorophosphate] + O,interfacial tension,[2],10.06 ± 0.2 mN/m
CCCCn1cc[n+](C)c1.F[P-](F)(F)(F)(F)F [1-butyl-3-methylimidazolium hexafluorophosphate] + c1ccccc1,interfacial tension,[2],2.209 ± 0.044 mN/m
CC(C)=Cn1cc[n+](C)c1.F[B-](F)(F)F [1-isobutenyl-3-methylimidazolium tetrafluoroborate],viscosity,[1]; 288.15 K,214.2 ± 8.2 mPa·s
same,viscosity,[1]; 293.15 K,158.7 ± 6.5 mPa·s
same,viscosity,[1]; 296.15 K,133.4 ± 5.4 mPa·s
same,surface tension liquid-gas,[1]; 298.15 K,51.8 ± 2.2 mN/m
same,viscosity,[1]; 298.15 K,118.5 ± 4.6 mPa·s
same,viscosity,[1]; 301.15 K,100.4 ± 4 mPa·s
same,viscosity,[1]; 303.15 K,88.9 ± 3.5 mPa·s
same,viscosity,[1]; 305.15 K,79.8 ± 3.1 mPa·s
same,viscosity,[1]; 308.15 K,68 ± 2.6 mPa·s
same,viscosity,[1]; 311.15 K,58.6 ± 2.2 mPa·s
same,viscosity,[1]; 313.15 K,53.4 ± 2 mPa·s
CCCCCCCCCCCCO [dodecan-1-ol] + CCCCn1cc[n+](C)c1.F[P-](F)(F)(F)(F)F,interfacial tension,[2],8.788 ± 0.17 mN/m
C=Cc1ccccc1 [styrene] + CCCCn1cc[n+](C)c1.F[P-](F)(F)(F)(F)F,interfacial tension,[2],1.793 ± 0.036 mN/m
